Results published in ChEMBL document CHEMBL3244083, “Fluorinated Pyrimidine nucleosides. 1. Synthesis of a nitrogen analogue of the antitumor agent 2,2'-anhydro-1-beta-D-arabinofuranosyl-5-fluorocytosine hydrochloride” (J Med Chem, 1977).
Active and inactive are the calls of the source. The calls are words filed in the database; no cut-off is given here.

Assays:
CCRF S-180 [1] = assay: Antitumor activity against mouse S180 cells allografted in mouse assessed as tumor growth inhibition at 100 mg/kg, ip qd for 8 days; format: functional, organism-based; design: dose 100 mg/kg
[2] = Stability of the compound at pH 7.4; format: physicochemical; details: buffer
CCRF S-180 [3] = assay: Antitumor activity against mouse S180 cells allografted in mouse assessed as tumor growth inhibition at 1 to 5 mg/kg, ip qd for 8 days; format: functional, organism-based
CCRF S-180 [4] = assay: Antitumor activity against mouse S180 cells allografted in mouse assessed as tumor growth inhibition at 5 mg/kg, ip qd for 8 days; format: functional, organism-based; design: dose 5 mg/kg
CCRF S-180 [5] = assay: Antitumor activity against mouse S180 cells allografted in mouse assessed as tumor growth inhibition at 50 mg/kg, ip qd for 8 days; format: functional, organism-based; design: dose 50 mg/kg

## Nc1nc2[n+](cc1F)[C@@H]1O[C@H](CO)[C@@H](O)[C@@H]1N2.[Cl-]
CCRF S-180 [1]
  TGI: inactive
[2]
  Stability: Stable

## Nc1nc(=O)n([C@@H]2O[C@H](CO)[C@@H](O)[C@H]2O)cc1F
CCRF S-180 [3]
  TGI: Active

## O=c1[nH]c(=O)n([C@@H]2O[C@H](CO)[C@@H](O)[C@H]2O)cc1F
CCRF S-180 [4]
  TGI: Active

## Nc1nc(=O)c(F)cn1[C@@H]1O[C@H](CO)[C@@H](O)[C@H]1O
CCRF S-180 [5]
  TGI: inactive

## O=c1[nH]c(=O)n([C@@H]2O[C@H](CI)[C@@H](O)[C@H]2O)cc1F
CCRF S-180 [5]
  TGI: inactive

## O=c1nc2n(cc1F)[C@@H]1O[C@H](CO)[C@@H](O)[C@@H]1N2
CCRF S-180 [5]
  TGI: inactive
[2]
  Stability: Stable

## Nc1nc(N)[n+]([C@@H]2O[C@H](CO)[C@@H](O)[C@H]2O)cc1F
CCRF S-180 [5]
  TGI: inactive
